From PMC12684391, “Mechanistic insights into the monotherapy and combination potential of FEN1 inhibition in cancer therapy” (Nucleic Acids Research, 2025)

Legend:
FEN1(1-380)-6His = target: T1, FEN1(1-380)-6His (Homo sapiens, UniProt P39748); assay: Surface plasmon resonance on immobilized FEN1; format: binding; conditions: SPR, 25°C, mean of n = 4 surfaces; for Kd: 1:1 Langmuir model; for residence time: read-out: τ (residence time)
T1 construct: FEN1(1-380)-6His was immobilized on a CM5 chip; made in house; host or cells: Escherichia coli
T1 sequence (P39748 whole entry): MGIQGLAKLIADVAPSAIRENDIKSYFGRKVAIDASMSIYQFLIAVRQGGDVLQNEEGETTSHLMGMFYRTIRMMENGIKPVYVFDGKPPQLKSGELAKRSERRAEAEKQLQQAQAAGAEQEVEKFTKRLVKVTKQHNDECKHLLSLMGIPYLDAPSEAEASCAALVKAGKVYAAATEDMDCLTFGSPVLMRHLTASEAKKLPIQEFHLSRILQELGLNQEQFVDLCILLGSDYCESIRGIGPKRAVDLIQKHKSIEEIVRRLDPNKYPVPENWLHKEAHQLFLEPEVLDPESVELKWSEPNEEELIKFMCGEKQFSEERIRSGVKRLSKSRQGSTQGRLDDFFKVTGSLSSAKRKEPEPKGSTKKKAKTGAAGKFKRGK
Experimental: The kinetic parameters of the interaction between FEN1 and small molecules were assessed by surface plasmon resonance (SPR). FEN1(1-380)-6His was immobilized on a CM5 chip (Series S, Cytiva, Uppsala, Sweden) via standard amine coupling procedure at 25°C. Prior to immobilization, the carboxymethylated surface of the CM5 chip was activated with 400 mM 1-ethyl-3-(3-dimethylaminopropyl)-carbodiimide and 100 mM N-hydroxysuccinimide for 7 min. FEN1 was diluted to 10 µg/ml in 10 mM Bis–Tris pH 6.50 and injected in the presence of 2 µM of an active site binder on the CM5 chip for 3 or 4 min resulting in immobilization levels between 1300 and 3100 response units (RU). The remaining activated carboxymethylated groups were blocked with a 7 min injection of 1 M ethanolamine pH 8.50. HBS-N pH 7.40 was used as the background buffer during immobilization.
All compounds were prediluted in DMSO, diluted 1:50 in running buffer (20 mM Tris–HCl pH 7.50, 100 mM KCl, 1 mM DTT, 5 mM MgCl2, 0.05% Tween-20, and 2% DMSO) and injected at 10 different concentrations using two-fold dilution series. A DMSO solvent correction (10 steps, 1.4%–2.8%) was performed to account for variations in bulk signal and to achieve high-quality data. Interaction analysis cycles consisted of a 150 s sample injection (30 μl/min; association phase) followed by 300 s of buffer flow (dissociation phase).
Experiments were performed on a Biacore 8K+ (Cytiva, Uppsala, Sweden) at 25°C and the interactions were evaluated using the Biacore Insight evaluation software (version 5.0). All sensorgrams were processed by first subtracting the signal of the control surface (reference spot) from the binding response, followed by subtraction of the buffer blank injection from the reaction spot (double referencing). All datasets were fitted to a simple 1:1 Langmuir interaction model to determine the kinetic rate constants (using as offset RI = const = 0 and for Rmax either global or local, if the surface generation was not complete between consecutive cycles). Reported kinetic parameters are mean values from four independent FEN1 surfaces (n = 4).

[1] = system: DLD-1, DLD-1 BRCA2KO, SUM149PT, MDA-MB-436 cells; assay: Cell cycle analysis by immunofluorescence (PCNA/DAPI); format: cell-based
Experimental: Cells were seeded at a density of 10 000 cells per well in 100 μl of media in collagen-coated 96-well plates (Revvity, #6055700). Twenty-four hours after seeding, cells were treated with the indicated doses of MSC2798778, MSC2798781, or DMSO (Apollo Scientific, BID1200) using a D300e digital dispenser (Tecan) for 24 h. Cells were washed with PBS and fixed in 4% PFA (ChemCruz, sc-281692) for 10 min at room temperature.
For immunofluorescence staining, cells were washed with PBS then blocked and permeabilized with PBS containing 0.5% BSA and 0.5% Triton X-100 (blocking buffer) for 45 min at room temperature. Cells were then stained with the indicated markers by incubation with primary antibodies (Supplementary Table S5) diluted in the blocking buffer, overnight at 4°C. […]
• Foci were quantified by setting up a contrast threshold higher than the background signal. • pKAP1 positive cells were selected using a mean intensity threshold. • Cell cycle analysis was performed by defining gates on a bivariate plot of DAPI total nuclear intensity and PCNA mean nuclear intensity. PCNA positive cells were scored as cells in S-phase. G1 and G2/M cells were scored as PCNA negative cells with differential DNA content. • PARylation and replication levels were quantified by measuring the mean nuclear fluorescence intensity, in PCNA positive cells, of poly/mono-ADP ribosylation and EdU, respectively.

DLD-1 BRCA2KO cells = assay: Cell viability assay (AlamarBlue), 7 days; format: cell-based
Experimental: Cells were seeded in 96-well plates and treated the day after seeding with a serial dilution of compounds in technical duplicates. After 7 days, viability was analyzed using the AlamarBlue reagent (BioRad). AlamarBlue was added in an amount equal to 10% of the volume in the well and after a 4–6 h incubation viability was determined by fluorescence analysis using a standard plate reader. Fluorescence was normalized to vehicle treated control for each cell line, and data were fitted in Genedata Screener to generate compound sensitivity curves and determine IC50 or EC50 (half maximal inhibitory/effective concentration) values as indicated.

[2] = system: MMEJ (resection independent reporter); assay: Extrachromosomal MMEJ reporter assay, resection independent, HEK-293; format: cell-based
Experimental: MMEJ resection-independent and MMEJ resection-dependent reporter assays performed as previously described. In brief, HEK-293 cells were resuspended in supplemented SF nucleofection solution (Lonza) containing nanoluciferase DNA substrate and Firefly luciferase plasmid (Promega) at a ratio of 100 μl SF: 1500 ng nanoluciferase substrate: 1000 ng Firefly plasmid: ∼1.5 × 10^6 cells. Cells were electroporated and recovered into fresh media before seeding into a 96-well plate pre-dosed with compounds and DMSO control.
After 24 h, Firefly and NanoLuc levels were detected using the Nano-Glo® Dual-Luciferase® Reporter Assay system (Promega) as per the manufacturer’s instructions. NanoLuc luminescence (reporter) was normalized to Firefly luminescence (control) to determine substrate repair. Percentage repair was calculated relative to the DMSO control.

Kd (FEN1(1-380)-6His) [nM]	koff (FEN1(1-380)-6His) [s⁻¹]	kon (FEN1(1-380)-6His) [M⁻¹ s⁻¹]	residence time (FEN1(1-380)-6His) [min]	EC50 (DLD-1 BRCA2KO cells; Homo sapiens, 168 h, DLD-1 BRCA2KO, 7 days, AlamarBlue, N = 3) [nM]	EC50 ([2]; Homo sapiens, HEK293, resection independent reporter, HEK-293, 24 h, read-out: MMEJ inhibition EC50) [nM]	SMILES	Cell cycle effect ([1]; 24 h treatment, all four cell lines)	Sensitivity of DLD-1 BRCA2KO relative to parental DLD-1 cells (DLD-1 BRCA2KO cells; more sensitive than isogenic DLD-1 wild-type) [fold]	MMEJ potency relative to ART558 ([2]; lower potency than ART558, both reporters)	Cell cycle effect ([1]; 3 µM, HRD panel and EWS panel (U-2 OS, RD-ES, MHH-ES-1))	Sensitivity of cell lines (viability) (DLD-1 BRCA2KO cells; DLD-1 and DLD-1 BRCA2KO, 7 days, AlamarBlue, compared with MSC778)	Inhibited MMEJ ([2]; both reporters, HEK-293)
2.9	0.00052	180000	32	220	1000	C[C@H](Oc1nn2c(c(O)c1=O)C(=O)N1CCOC[C@@H]1C2)c1ccc2ccc(Cl)cc2c1 [MSC778]	titratable S-phase accumulation	~10	10–20 fold			
23	0.0034	150000	4.8			C[C@@H](Oc1nn2c(c(O)c1=O)C(=O)N1CCOC[C@@H]1C2)c1ccc2ccc(Cl)cc2c1 [MSC781]				not perturbed	much less sensitive	not
